Among the data in patent US10526332B2, “Imidazo-pyrimidone compounds, and preparation method and application thereof” (Nanjing Gator Meditech Company, Ltd., priority 2015, dated 2020) are IC50 values, retold here.

As a reminder, the IC50 is the concentration that gives 50% inhibition.

In one assay the test system is HCT116. Briefly: MTS cell proliferation test, HCT116.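 Note: absorbance at 490 nm after MTS/PMS addition, survival relative to untreated cells (100%) after blank subtraction, IC50 from the concentration–survival curve.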 The settings on record: Homo sapiens, HCT-116, 72 h, read-out: HCT116 IC50 (Mean ± SD). Background: Formazan colour is commonly taken as a measure of viable cells.
In a further assay the test system is MDA-MB-231. Put plainly: MTS cell proliferation test, MDA-MB-231.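 Note: cells settled 24 h before compound addition, MTS absorbance at 490 nm, survival as percent of untreated cells after blank subtraction, IC50 fitted from survival versus concentration.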 The note with it: Homo sapiens, MDA-MB-231, 72 h, read-out: MDA231 IC50 (Mean ± SD).

SMILES strings stand for the structures.

Protocol for HCT116: (§1) The disclosed compounds and their pharmaceutically accepted salts are assayed for their anti-cancer activities by the following method. • MTS Cell Proliferation Test 1. Materials 1.1. […] Cell Lines
(§2) Two cell lines were used, both HCT116 and MDA-MB-231 were purchased from USATCC.
(§3) MTS reagent powder was purchased from Promega. Cat #G1111; PMS from Sigma, Cat #P8625; cell culture medium RPMI-1640, Cat #10040562R; DMEM, Cat #0013CVR; 100× sodium pyruvate solution Cat #136007; 100× Penicillin Streptomycin Solution, Cat ⊇15140122; 100× Penicillin Streptomycin Solution, Cat #15140122; 0.25% Trypsin (Parenzyme), Cat #25200-072; and fetal bovine serum, Cat #16000-044 were all purchased from Life Technologies.
(§4) • Thermo incubator (Format 371); • Heat force Biosafety Cabinet (HF sage 1500); • BioTek Microplate Reader (Synergy 2). 2. […] 2.3 Procedure of MTS Methods:
(§5) Cells at logarithmic phase were harvested, then digested with 0.25% trypsin, and re-suspense in complete growth medium. 150 uL/well of HCT-116 and MDA-MB-231 were dispensed into 96 well culture plates with 2.5×10^3 cell/well. The plates were pre-incubated in a humidified CO2 incubator at 37° C., 5% CO2) for 24 hours. 50 uL of various concentration of test compounds and reference compound were added. A negative control (only cells and culture medium without compound) and blank control (only culture medium without cells) were set at the same time. The plates were incubated for 72 hr in the incubator. The MTS/PMS solution was prepared and added into 96 well plates according to the test instruction by Promega Corporation. The plates were incubated again for some time, then the absorbance at 490 nm were measured using Biotek Instruments, Inc microplate reader and the cell survival rates calculated. Cell Survival Rate(%)=(At−Ab)/(Ac−Ab)×100% where, • At=Absorbance value of test compound • Ab=Absorbance value of blank • Ac=Absorbance value of control 3. Results
Protocol for MDA-MB-231: as §1, §2, §3, §4, §5

In the case of `O=C1C2=C(CCN(Cc3ccccc3)C2)N2CCN=C2N1Cc1ccc(Cl)cc1C(F)(F)F` [Compound I-43, 7-benzyl-4-(4-chloro-2-(trifluoromethyl)benzyl)-1,2,6,7,8,9-hexahydroimidazo[1,2-a]pyrido[3,4-e]pyrimidin-5(4H)-one], the half-maximal inhibitory concentration (IC50) turned out to be 4.29 ± 0.21 µM in the assay on HCT116 and 2.85 ± 0.77 µM with MDA-MB-231.

Consider `O=C1C2=C(CN(Cc3ccccc3)C2)N2CCN=C2N1Cc1ccc(Cl)cc1Cl` [Compound I-56, 2-benzyl-5-(2,4-dichlorobenzyl)-2,3,7,8-tetrahydro-1H-imidazo[1,2-a]pyrrolo[3,4-e]pyrimidin-4(5H)-one], for which the figures for the IC50 in the assay on HCT116 and with MDA-MB-231 were 2.05 ± 0.03 µM and 2.05 ± 0.04 µM, respectively.

Regarding `O=C1C2=C(CCN(Cc3ccccc3F)C2)N2CCN=C2N1Cc1ccccc1C(F)(F)F` [Compound I-12, 7-(2-fluorobenzyl)-4-(2-(trifluoromethyl)benzyl)-1,2,6,7,8,9-hexahydroimidazo[1,2-a]pyrido[3,4-e]pyrimidin-5(4H)-one], the results for the IC50 with HCT116 and with MDA-MB-231 were 2.04 ± 0.029 µM and 2.07 ± 0.001 µM, respectively.

As for `O=C1C2=C(CCN(Cc3cccc(F)c3)C2)N2CCN=C2N1Cc1ccccc1Cl` [Compound I-51, 4-(2-chlorobenzyl)-7-(3-fluorobenzyl)-1,2,6,7,8,9-hexahydroimidazo[1,2-a]pyrido[3,4-e]pyrimidin-5(4H)-one], the values for the IC50 in the assay on HCT116 and in the assay with MDA-MB-231 were 0.7 ± 0.001 µM and 0.73 ± 0.004 µM, respectively.

On to `Cc1ccccc1CN1C(=O)C2=C(CCN(Cc3ccc(N4CCOCC4)cc3)C2)N2CCN=C12` [Compound I-8, 4-(2-methylbenzyl)-7-(4-morpholinobenzyl)-1,2,6,7,8,9-hexahydroimidazo[1,2-a]pyrido[3,4-e]pyrimidin-5(4H)-one], for which the IC50 with HCT116 was 1.77 ± 0.23 µM; with MDA-MB-231 it was 1.82 ± 0.241 µM.

`O=C1C2=C(CCN(Cc3ccccc3Cl)C2)N2CCN=C2N1Cc1ccccc1Br` [Compound I-26, 4-(2-bromobenzyl)-7-(2-chlorobenzyl)-1,2,6,7,8,9-hexahydroimidazo[1,2-a]pyrido[3,4-e]pyrimidin-5(4H)-one]: the IC50 in the assay on HCT116 came to 1.5 ± 0.394 µM; with MDA-MB-231, 2.08 ± 0.067 µM.

Turning to `Cc1ccccc1CN1CCC2=C(C1)C(=O)N(Cc1ccccc1F)C1=NCCN12` [Compound I-21, 4-(2-fluorobenzyl)-7-(2-methylbenzyl)-1,2,6,7,8,9-hexahydroimidazo[1,2-a]pyrido[3,4-e]pyrimidin-5(4H)-one], the IC50 in the assay on HCT116 was determined as 2.12 ± 0.039 µM; in the assay on MDA-MB-231 it was 2.15 ± 0.034 µM.

As for `O=C1C2=C(CCN(Cc3ccccc3)C2)N2CCN=C2N1Cc1ccc(Cl)cc1` [Compound I-3, 7-benzyl-4-(4-chlorobenzyl)-1,2,6,7,8,9-hexahydroimidazo[1,2-a]pyrido[3,4-e]pyrimidin-5(4H)-one], the IC50 is 0.06 ± 0.006 µM with HCT116 and 0.07 ± 0.003 µM with MDA-MB-231.

As for `O=C1C2=C(CCN(Cc3cccc(Cl)c3)C2)N2CCN=C2N1Cc1ccccc1Cl` [Compound I-36, 4-(2-chlorobenzyl)-7-(3-chlorobenzyl)-1,2,6,7,8,9-hexahydroimidazo[1,2-a]pyrido[3,4-e]pyrimidin-5(4H)-one], the IC50 in the assay on HCT116 turned out to be 0.72 µM; in the assay with MDA-MB-231, 0.74 ± 0.001 µM.

As to `O=C1C2=C(CCN(Cc3ccccc3F)C2)N2CCN=C2N1Cc1ccccc1F` [Compound I-11, 4,7-bis(2-fluorobenzyl)-1,2,6,7,8,9-hexahydroimidazo[1,2-a]pyrido[3,4-e]pyrimidin-5(4H)-one], the IC50 in the assay on HCT116 worked out at 1.99 ± 0.041 µM; in the assay on MDA-MB-231, 2.18 ± 0.02 µM.

Take `Cc1ccccc1CN1C(=O)C2=C(CCN(Cc3cccc(Br)c3)C2)N2CCN=C12` [Compound I-29, 7-(3-bromobenzyl)-4-(2-methylbenzyl)-1,2,6,7,8,9-hexahydroimidazo[1,2-a]pyrido[3,4-e]pyrimidin-5(4H)-one]: the values for the IC50 in the assay on HCT116 and with MDA-MB-231 were 0.72 ± 0.001 µM and 0.74 ± 0.002 µM, respectively.

Turning to `O=C1C2=C(CCN(Cc3ccccc3Cl)C2)N2CCN=C2N1Cc1ccccc1F` [Compound I-23, 7-(2-chlorobenzyl)-4-(2-fluorobenzyl)-1,2,6,7,8,9-hexahydroimidazo[1,2-a]pyrido[3,4-e]pyrimidin-5(4H)-one], the IC50 with HCT116 was determined as 2 ± 0.026 µM; with MDA-MB-231 it was 2.14 ± 0.025 µM.

For `Cc1cccc(CN2CCC3=C(C2)C(=O)N(Cc2ccccc2Br)C2=NCCN23)c1` [Compound I-33, 4-(2-bromobenzyl)-7-(3-methylbenzyl)-1,2,6,7,8,9-hexahydroimidazo[1,2-a]pyrido[3,4-e]pyrimidin-5(4H)-one], the IC50 in the assay with HCT116 is 0.72 ± 0.001 µM; in the assay on MDA-MB-231, 0.86 ± 0.136 µM.

Turning to `O=C1C2=C(CN(Cc3ccccc3)C2)N2CCN=C2N1Cc1ccc(Cl)c(C(F)(F)F)c1` [Compound I-57, 2-benzyl-5-(4-chloro-3-(trifluoromethyl)benzyl)-2,3,7,8-tetrahydro-1H-imidazo[1,2-a]pyrrolo[3,4-e]pyrimidin-4(5H)-one], the results for the IC50 in the assay on HCT116 and with MDA-MB-231 were 2.08 ± 0.01 µM and 2.1 ± 0.07 µM, respectively.

`Cc1ccccc1CN1C(=O)C2=C(CCN(Cc3ccccc3)C2)N2CCN=C12` [TIC10, 7-benzyl-4-(2-methylbenzyl)-1,2,6,7,8,9-hexahydroimidazo[1,2-a]pyrido[3,4-e]pyrimidin-5(4H)-one, reference compound]: the values for the IC50 with HCT116 and in the assay with MDA-MB-231 were 1.06 ± 0.24 µM and 0.79 ± 0.08 µM, respectively.

As to `Cc1ccccc1CN1C(=O)C2=C(CCN(Cc3ccccc3F)C2)N2CCN=C12` [Compound I-15, 7-(2-fluorobenzyl)-4-(2-methylbenzyl)-1,2,6,7,8,9-hexahydroimidazo[1,2-a]pyrido[3,4-e]pyrimidin-5(4H)-one], the IC50 was found to be 0.68 ± 0.003 µM in the assay on HCT116 and 0.73 ± 0.004 µM in the assay on MDA-MB-231.

For `O=C1C2=C(CCN(Cc3ccccc3Cl)C2)N2CCN=C2N1Cc1ccccc1Cl` [Compound I-25, 4,7-bis(2-chlorobenzyl)-1,2,6,7,8,9-hexahydroimidazo[1,2-a]pyrido[3,4-e]pyrimidin-5(4H)-one], the IC50 turned out to be 1.95 ± 0.064 µM in the assay on HCT116 and 1.31 ± 0.154 µM in the assay on MDA-MB-231.

Take `O=C1C2=C(CCN(Cc3ccccc3)C2)N2CCN=C2N1Cc1cccc(Cl)c1` [Compound I-1, 7-Benzyl-4-(3-chlorobenzyl)-1,2,6,7,8,9-hexahydroimidazo[1,2-a]pyrido[3,4-e]pyrimidin-5(4H)-one]: the IC50 with HCT116 amounted to 0.23 ± 0.009 µM; in the assay with MDA-MB-231, 0.24 µM.

With `O=C1C2=C(CCN(Cc3cccc(Cl)c3)C2)N2CCN=C2N1Cc1ccccc1C(F)(F)F` [Compound I-35, 7-(3-chlorobenzyl)-4-(2-(trifluoromethyl)benzyl)-1,2,6,7,8,9-hexahydroimidazo[1,2-a]pyrido[3,4-e]pyrimidin-5(4H)-one], the concentration for half-maximal inhibition (IC50) with HCT116 was 6.21 ± 0.077 µM; in the assay with MDA-MB-231 it was 4.21 ± 0.634 µM.

On to `O=C1C2=C(CCN(Cc3ccccc3)C2)N2CCN=C2N1Cc1ccc(C(F)(F)F)cc1` [Compound I-39, 7-benzyl-4-(4-(trifluoromethyl)benzyl)-1,2,6,7,8,9-hexahydroimidazo[1,2-a]pyrido[3,4-e]pyrimidin-5(4H)-one], for which the IC50 with HCT116 amounted to 0.03 µM; in the assay on MDA-MB-231, 0.05 µM.

`O=C1C2=C(CN(Cc3ccccc3)C2)N2CCN=C2N1Cc1ccccc1Br` [Compound I-55, 2-Benzyl-5-(2-bromobenzyl)-2,3,7,8-tetrahydro-1H-imidazo[1,2-a]pyrrolo[3,4-e]pyrimidin-4(5H)-one]: the IC50 in the assay on HCT116 was found to be 2.14 ± 0.001 µM; with MDA-MB-231, 2.19 ± 0.039 µM.

Turning to `Cc1cccc(CN2CCC3=C(C2)C(=O)N(Cc2ccccc2F)C2=NCCN23)c1` [Compound I-30, 4-(2-fluorobenzyl)-7-(3-methylbenzyl)-1,2,6,7,8,9-hexahydroimidazo[1,2-a]pyrido[3,4-e]pyrimidin-5(4H)-one], the 50% inhibitory concentration (IC50) was found to be 2.07 ± 0.062 µM in the assay with HCT116 and 2.13 ± 0.005 µM in the assay on MDA-MB-231.

Turning to `O=C1C2=C(CCN(Cc3ccccc3F)C2)N2CCN=C2N1Cc1ccccc1Br` [Compound I-14, 4-(2-bromobenzyl)-7-(2-fluorobenzyl)-1,2,6,7,8,9-hexahydroimidazo[1,2-a]pyrido[3,4-e]pyrimidin-5(4H)-one], the IC50 with HCT116 is 1.45 ± 0.155 µM; in the assay on MDA-MB-231, 2.08 ± 0.024 µM.

Take `Cc1ccccc1CN1C(=O)C2=C(CCN(Cc3ccccc3Br)C2)N2CCN=C12` [Compound I-20, 7-(2-bromobenzyl)-4-(2-methylbenzyl)-1,2,6,7,8,9-hexahydroimidazo[1,2-a]pyrido[3,4-e]pyrimidin-5(4H)-one]: the values for the IC50 with HCT116 and in the assay with MDA-MB-231 were 27.5 ± 3.35 µM and 27.1 ± 3.24 µM, respectively.

Take `Cc1ccccc1CN1C(=O)C2=C(CCN(Cc3ccc(C(F)(F)F)cc3)C2)N2CCN=C12` [Compound I-6, 4-(2-methylbenzyl)-7-(4-(trifluoromethyl)benzyl)-1,2,6,7,8,9-hexahydroimidazo[1,2-a]pyrido[3,4-e]pyrimidin-5(4H)-one]: the IC50 in the assay on HCT116 was 4.16 ± 1.51 µM; in the assay on MDA-MB-231 it was 4.45 ± 0.356 µM.

With `Cc1ccccc1CN1C(=O)C2=C(CCN(Cc3ccc(N4CCN(C)CC4)cc3)C2)N2CCN=C12` [Compound I-10, 4-(2-methylbenzyl)-7-(4-(4-methylpiperazin-1-yl)benzyl)-1,2,6,7,8,9-hexahydroimidazo[1,2-a]pyrido[3,4-e]pyrimidin-5(4H)-one], the IC50 in the assay with HCT116 was 2.09 ± 0.016 µM; in the assay with MDA-MB-231 it was 2.19 ± 0.027 µM.

As to `Cc1ccccc1CN1C(=O)C2=C(CCN(Cc3ccccc3Cl)C2)N2CCN=C12` [Compound I-27, 7-(2-chlorobenzyl)-4-(2-methylbenzyl)-1,2,6,7,8,9-hexahydroimidazo[1,2-a]pyrido[3,4-e]pyrimidin-5(4H)-one], the IC50 in the assay on HCT116 stood at 2.13 ± 0.045 µM; in the assay with MDA-MB-231 it was 2.26 ± 0.018 µM.

For the molecule `Cc1ccccc1CN1C(=O)C2=C(CCN(Cc3cccc(C(F)(F)F)c3)C2)N2CCN=C12` [Compound I-9, 4-(2-methylbenzyl)-7-(3-(trifluoromethyl)benzyl)-1,2,6,7,8,9-hexahydroimidazo[1,2-a]pyrido[3,4-e]pyrimidin-5(4H)-one], the IC50 with HCT116 amounted to 0.71 ± 0.001 µM; with MDA-MB-231, 0.74 µM.

Regarding `O=C1C2=C(CCN(Cc3ccccc3Br)C2)N2CCN=C2N1Cc1ccccc1Cl` [Compound I-18, 7-(2-bromobenzyl)-4-(2-chlorobenzyl)-1,2,6,7,8,9-hexahydroimidazo[1,2-a]pyrido[3,4-e]pyrimidin-5(4H)-one], the IC50 in the assay on HCT116 was found to be 2.15 ± 0.022 µM.
